Reference: patent US20240131112A1, “USE OF METHANOBACTIN FOR TREATMENT OF IRON-RELATED DISEASES” (Helmholtz Zentrum Muenchen - Deutsches Forschungszentrum …, priority 2021, published 2024)

Columns and labels:
[1] = tested on: livers from LPP Atp7b^−/− rats; test: Liver perfusion experiments, biliary iron excretion; design: species or system rat; conditions: liver perfusion one hour at 37° C., 35 μmol methanobactin, ICP-OES
Experimental: Cannulated livers from LPP Atp7b^−/− rats were perfused for one hour at 37° C. with Krebs-Ringer bicarbonate solution, gassed with 95% O2 and 5% CO2, and MB-SB2 or MB-OB3b (35 μmol). During perfusion total bile was collected in 10-minute intervals. Biliary iron concentrations were determined by inductively coupled plasma optical emission spectrometry (ICP-OES) as described (Lichtmannegger et al. J Clin Invest, 2016, 126, 2721-2735).

LPP Atp7b^−/− rats = test: Fecal iron excretion after intraperitoneal injection; assay type: in vivo, rat; conditions: i.p. twice a day for four days, 110 mg/kg bw MB-SB2 or 150 mg/kg bw MB-OB3b, ICP-OES
Experimental: LPP Atp7b^−/− rats were injected intraperitoneally (i.p.) twice a day for four consecutive days with either 110 mg/kg bw MB-SB2 or 150 mg/kg bw MB-OB3b. Rats were housed individually in metabolic cages for 4 days. Feces of each rat was collected in 24-hour periods at 24, 48, 72 and 96 hours after treatment start. Feces was separated from chow residues, dried, homogenized by grinding or milling and digested with concentrated HNO3 and iron content determined with inductively coupled plasma optical emission spectrometry (ICP-OES).

[2] = tested on: Huh7 cells (human hepatoma cell line); test: Cellular iron concentration in iron-preloaded Huh7 cells; assay type: cell-based; conditions: Huh7 preloaded 24 hours with 50 μM FAC, then 0.5 mM test substance for 24 hours, N=4
Experimental: FIG. 5: Control Huh7 cells (human hepatoma cell line) were preloaded for 24 hours with 50 μM FAC. The cells were then treated with 0.5 mM MB-SB2, 0.5 mM MB-OB3b and 0.5 mM DFO for 24 hours. […] Statistical analysis was done by One-way ANOVA (N=4).

For CC(NC(=O)C(C)NC(=S)C1N=C(C(NC(=O)C(CO)NC(=O)C(C)NC(=S)C2N=C(C(=O)CCCNC(=N)N)NC2=O)C(C)OS(=O)(=O)O)OC1=O)C(=O)O (stereo not drawn) [MB-SB2], which Biliary iron excretion [1] is on record?
Its Biliary iron excretion is “brings iron to the bile”.

What about the Fecal iron excretion (LPP Atp7b^−/− rats) of the same compound?
The Fecal iron excretion was “excrete iron in feces”.

What about the Cellular iron concentration [2] of the same compound?
Its Cellular iron concentration is “significantly reduces cellular iron concentration in iron-preloaded Huh7 cells to the untreated level”.
